PubChem BioAssay (NCI)
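Test compounds were applied to cells in 96-well plates for 48 hours at 5 doses. Definition used: TGI = concentration required for complete inhibition of growth.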

Columns and labels:
Assay in all cases: growth of human tumour cells (NCI), 48 h
HCT-116 colon = system: HCT-116 colon
A498 renal = system: A498 renal
SW-620 colon = system: SW-620 colon
HT29 colon = system: HT29 colon
CAKI-1 renal = system: CAKI-1 renal
EKVX NSCLC = system: EKVX NSCLC
SF-268 CNS = system: SF-268 CNS
COLO 205 colon = system: COLO 205 colon
A549 NSCLC = system: A549 NSCLC
PC-3 prostate = system: PC-3 prostate
MDA-MB-435 = system: MDA-MB-435
HL-60(TB) leukemia = system: HL-60(TB) leukemia
MOLT-4 leukemia = system: MOLT-4 leukemia
SNB-75 CNS = system: SNB-75 CNS
OVCAR-5 ovarian = system: OVCAR-5 ovarian
OVCAR-4 ovarian = system: OVCAR-4 ovarian
NCI-H522 lung = system: NCI-H522 lung
ACHN renal = system: ACHN renal
LOX IMVI melanoma = system: LOX IMVI melanoma
MCF7 breast = system: MCF7 breast
SK-MEL-28 melanoma = system: SK-MEL-28 melanoma
DU-145 prostate = system: DU-145 prostate
HOP-92 NSCLC = system: HOP-92 NSCLC
UACC-257 melanoma = system: UACC-257 melanoma
IGROV1 ovarian = system: IGROV1 ovarian
KM12 colon = system: KM12 colon
MDA-N = system: MDA-N
SK-OV-3 ovarian = system: SK-OV-3 ovarian
K-562 leukemia = system: K-562 leukemia
NCI-H226 lung = system: NCI-H226 lung
SK-MEL-5 melanoma = system: SK-MEL-5 melanoma
CCRF-CEM leukemia = system: CCRF-CEM leukemia
SN12C renal = system: SN12C renal
SNB-19 CNS = system: SNB-19 CNS
MALME-3M melanoma = system: MALME-3M melanoma
T-47D breast = system: T-47D breast
SK-MEL-2 melanoma = system: SK-MEL-2 melanoma
OVCAR-8 ovarian = system: OVCAR-8 ovarian
NCI-H23 lung = system: NCI-H23 lung
HCC-2998 colon = system: HCC-2998 colon
BT-549 breast = system: BT-549 breast
MDA-MB-231 breast = system: MDA-MB-231 breast
UO-31 renal = system: UO-31 renal
SR leukemia = system: SR leukemia
RPMI-8226 leukemia = system: RPMI-8226 leukemia
HOP-62 NSCLC = system: HOP-62 NSCLC
NCI-H460 lung = system: NCI-H460 lung
UACC-62 melanoma = system: UACC-62 melanoma
RXF 393 renal = system: RXF 393 renal
786-0 renal = system: 786-0 renal
SF-295 CNS = system: SF-295 CNS
OVCAR-3 ovarian = system: OVCAR-3 ovarian
U251 CNS = system: U251 CNS
HCT-15 colon = system: HCT-15 colon
HS 578T breast = system: HS 578T breast
NCI/ADR-RES ovarian = system: NCI/ADR-RES ovarian
M14 melanoma = system: M14 melanoma

Measured: TGI

Nc1nc(NCCCO)cc(=O)[nH]1
> 100 µM: all assays above
